These results are taken from ChEMBL document CHEMBL2074240, “VX-710 (biricodar) increases drug retention and enhances chemosensitivity in resistant cells overexpressing P-glycoprotein, multidrug resistance protein, and breast cancer resistance protein” (Clin Cancer Res, 2004).

The data set concerns the target ATP-dependent translocase ABCB1 (Homo sapiens, UniProt P08183). Description: TP_TRANSPORTER: increase in mitoxantrone intracellular accumulation (Mitoxantrone: 3 uM, VX-710: 2.5 uM) in A2780/Dx5b cells. It counts as functional, cell-based.

Molecules are shown by their SMILES.

ATP-dependent translocase ABCB1, sequence (P08183 whole entry): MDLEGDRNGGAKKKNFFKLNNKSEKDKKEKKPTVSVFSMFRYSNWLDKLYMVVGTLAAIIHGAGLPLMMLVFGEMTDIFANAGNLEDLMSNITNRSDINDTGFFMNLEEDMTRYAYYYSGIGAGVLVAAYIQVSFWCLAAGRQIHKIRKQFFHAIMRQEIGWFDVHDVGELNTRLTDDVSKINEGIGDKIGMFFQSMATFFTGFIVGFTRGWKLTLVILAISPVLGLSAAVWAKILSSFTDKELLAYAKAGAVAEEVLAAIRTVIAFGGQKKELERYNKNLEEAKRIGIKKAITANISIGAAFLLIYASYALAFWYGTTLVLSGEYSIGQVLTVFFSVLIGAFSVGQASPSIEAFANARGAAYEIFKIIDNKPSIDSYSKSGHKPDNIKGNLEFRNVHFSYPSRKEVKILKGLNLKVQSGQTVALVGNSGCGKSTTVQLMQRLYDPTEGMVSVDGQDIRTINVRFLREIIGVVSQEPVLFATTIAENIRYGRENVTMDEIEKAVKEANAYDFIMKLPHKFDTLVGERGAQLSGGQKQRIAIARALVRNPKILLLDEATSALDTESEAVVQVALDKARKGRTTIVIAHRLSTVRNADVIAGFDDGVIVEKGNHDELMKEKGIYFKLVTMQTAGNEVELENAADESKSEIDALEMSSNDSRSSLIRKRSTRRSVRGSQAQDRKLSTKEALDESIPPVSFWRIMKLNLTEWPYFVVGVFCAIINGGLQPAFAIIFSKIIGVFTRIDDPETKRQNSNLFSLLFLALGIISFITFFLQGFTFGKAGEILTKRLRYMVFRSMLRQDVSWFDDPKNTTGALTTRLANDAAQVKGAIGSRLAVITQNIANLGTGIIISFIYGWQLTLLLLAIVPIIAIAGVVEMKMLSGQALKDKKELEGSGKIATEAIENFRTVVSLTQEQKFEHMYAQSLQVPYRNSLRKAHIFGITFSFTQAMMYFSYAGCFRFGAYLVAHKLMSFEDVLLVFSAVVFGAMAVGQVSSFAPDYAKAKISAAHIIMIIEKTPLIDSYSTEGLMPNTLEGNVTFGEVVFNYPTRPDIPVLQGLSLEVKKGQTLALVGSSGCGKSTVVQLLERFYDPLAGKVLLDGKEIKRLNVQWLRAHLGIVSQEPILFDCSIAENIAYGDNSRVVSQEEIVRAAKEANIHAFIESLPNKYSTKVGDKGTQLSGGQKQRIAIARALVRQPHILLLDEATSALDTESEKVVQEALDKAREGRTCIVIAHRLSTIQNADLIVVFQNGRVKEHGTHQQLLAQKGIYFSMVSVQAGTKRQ

Consider `COc1cc(C(=O)C(=O)N2CCCC[C@H]2C(=O)OC(CCCc2cccnc2)CCCc2cccnc2)cc(OC)c1OC` [BIRICODAR], for which the Activity result was “inhibitor [+]”.
